Measured values: ChEMBL document CHEMBL1123364, “Selective thromboxane synthetase inhibitors. 4. 2-(1H-imidazol-1-ylmethyl) carboxylic acids of benzo[b]furan, benzo[b]thiophene, indole, and naphthalene” (J Med Chem, 1986)

Experiments:
[1] = target: T1, Cyclooxygenase (Rattus norvegicus, UniProt P35355+Q63921); experiment: Inhibition of cyclooxygenase from RBL-1 cells.; assay type: cell-based
T1 sequence (P35355 whole entry): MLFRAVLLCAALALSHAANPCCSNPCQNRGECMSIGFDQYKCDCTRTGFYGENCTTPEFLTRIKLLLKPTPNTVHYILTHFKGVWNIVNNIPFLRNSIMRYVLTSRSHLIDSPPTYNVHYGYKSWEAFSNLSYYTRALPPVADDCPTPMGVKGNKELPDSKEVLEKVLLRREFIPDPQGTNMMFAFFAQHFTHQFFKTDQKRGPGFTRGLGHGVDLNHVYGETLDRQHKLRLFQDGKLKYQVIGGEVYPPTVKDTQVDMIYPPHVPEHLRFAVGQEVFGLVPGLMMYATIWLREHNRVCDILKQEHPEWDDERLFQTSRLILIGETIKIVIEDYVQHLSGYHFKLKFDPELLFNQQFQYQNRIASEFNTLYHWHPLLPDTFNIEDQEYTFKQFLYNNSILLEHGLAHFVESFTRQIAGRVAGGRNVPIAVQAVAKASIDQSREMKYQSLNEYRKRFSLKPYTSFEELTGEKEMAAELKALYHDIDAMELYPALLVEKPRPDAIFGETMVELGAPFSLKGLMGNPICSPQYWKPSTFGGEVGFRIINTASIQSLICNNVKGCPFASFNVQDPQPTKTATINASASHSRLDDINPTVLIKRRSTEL
T1 sequence (Q63921 whole entry): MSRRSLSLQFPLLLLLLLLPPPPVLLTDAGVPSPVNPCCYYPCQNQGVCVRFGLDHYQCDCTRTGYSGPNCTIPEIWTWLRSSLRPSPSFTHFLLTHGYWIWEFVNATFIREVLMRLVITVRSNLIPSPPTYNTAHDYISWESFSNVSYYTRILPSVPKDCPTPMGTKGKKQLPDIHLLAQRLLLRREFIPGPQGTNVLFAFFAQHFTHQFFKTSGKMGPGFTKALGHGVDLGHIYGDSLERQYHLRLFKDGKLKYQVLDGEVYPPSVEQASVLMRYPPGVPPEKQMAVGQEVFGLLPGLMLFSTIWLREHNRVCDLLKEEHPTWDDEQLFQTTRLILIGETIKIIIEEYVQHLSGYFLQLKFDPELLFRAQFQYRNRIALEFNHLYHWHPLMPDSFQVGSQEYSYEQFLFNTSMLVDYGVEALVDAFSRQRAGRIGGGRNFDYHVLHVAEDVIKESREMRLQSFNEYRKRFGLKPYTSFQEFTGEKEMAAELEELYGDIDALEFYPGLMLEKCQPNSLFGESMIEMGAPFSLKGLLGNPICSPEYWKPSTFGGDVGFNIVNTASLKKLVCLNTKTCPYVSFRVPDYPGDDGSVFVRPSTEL

[2] = target: T2, Thromboxane-A synthase (Homo sapiens, UniProt P24557); experiment: Inhibition of TXA2 synthetase from human platelets
T2 sequence (P24557 whole entry): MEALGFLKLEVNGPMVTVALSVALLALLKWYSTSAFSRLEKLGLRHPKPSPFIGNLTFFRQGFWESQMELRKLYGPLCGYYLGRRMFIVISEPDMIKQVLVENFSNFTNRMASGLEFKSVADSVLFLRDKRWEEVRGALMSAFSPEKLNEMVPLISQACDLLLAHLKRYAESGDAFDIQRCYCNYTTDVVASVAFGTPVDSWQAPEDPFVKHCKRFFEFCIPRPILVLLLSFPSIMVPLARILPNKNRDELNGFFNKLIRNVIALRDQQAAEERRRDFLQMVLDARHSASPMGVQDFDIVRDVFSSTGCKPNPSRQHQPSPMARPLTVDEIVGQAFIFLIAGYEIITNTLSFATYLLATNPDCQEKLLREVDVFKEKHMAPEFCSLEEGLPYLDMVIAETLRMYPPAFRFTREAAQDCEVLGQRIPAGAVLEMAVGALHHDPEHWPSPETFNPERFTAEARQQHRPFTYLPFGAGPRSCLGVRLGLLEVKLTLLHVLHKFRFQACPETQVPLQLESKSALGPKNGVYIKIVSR

[3] = target: T3, Cytochrome P450 11B1, mitochondrial (Rattus norvegicus, UniProt P15393); experiment: Inhibition of rat adrenal 11-beta-hydroxylase
T3 sequence (P15393 whole entry): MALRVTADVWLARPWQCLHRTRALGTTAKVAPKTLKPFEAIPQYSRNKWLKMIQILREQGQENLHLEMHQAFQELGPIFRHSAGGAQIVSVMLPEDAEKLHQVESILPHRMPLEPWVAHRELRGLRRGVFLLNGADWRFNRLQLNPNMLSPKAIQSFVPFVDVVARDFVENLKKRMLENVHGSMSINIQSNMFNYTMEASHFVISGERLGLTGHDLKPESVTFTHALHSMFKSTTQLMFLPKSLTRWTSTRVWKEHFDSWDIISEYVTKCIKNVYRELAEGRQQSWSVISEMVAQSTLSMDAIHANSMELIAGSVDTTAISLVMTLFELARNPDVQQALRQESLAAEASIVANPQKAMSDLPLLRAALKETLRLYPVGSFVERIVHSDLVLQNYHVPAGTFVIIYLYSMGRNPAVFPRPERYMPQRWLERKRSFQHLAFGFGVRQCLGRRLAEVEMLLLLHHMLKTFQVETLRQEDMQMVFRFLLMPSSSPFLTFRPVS

[4] = Ionisation constant in presence of acid; assay type: ADME
[5] = Ionisation constant in presence of base; assay type: ADME

Compound | IC50 [1] | IC50 [2] | IC50 [3] | pKa [4] | pKa [5]
Cc1c(Cn2ccnc2)oc2ccc(C(=O)O)cc12 | > 0.0002 M | 0.034 µM | 100 µM | 3.91 | 6.08
CSc1c(Cn2ccnc2)sc2ccc(C(=O)O)cc12 | – | 0.043 µM | – | – | –
Cc1c(Cn2ccnc2)n(C)c2ccc(C(=O)O)cc12 | > 0.0002 M | 0.032 µM | – | 4.08 | 6.32
O=C(O)c1ccc(OCCn2ccnc2)cc1 [DAZOXIBEN] | – | – | > 100 µM | – | –
O=C(O)c1ccc2cc(Cn3ccnc3)ccc2c1 | – | 0.034 µM | – | – | –
O=C(O)c1ccc2oc(Cn3ccnc3)c(Cl)c2c1 | > 0.0002 M | 0.031 µM | > 100 µM | – | –
O=C(O)c1cccc2cc(Cn3ccnc3)ccc12 | – | 0.071 µM | – | – | –
O=C(O)c1ccc2c(Cl)c(Cn3ccnc3)sc2c1 | > 0.0002 M | 0.04 µM | – | – | –
Cc1c(Cn2ccnc2)[nH]c2ccc(C(=O)O)cc12 | – | 0.037 µM | – | – | –

Continued, values first:

IC50 [1] | IC50 [2] | IC50 [3] | pKa [4] | pKa [5] | Compound
> 0.0002 M | 0.018 µM | – | – | – | Cc1c(Cn2ccnc2)sc2cc(C(=O)O)ccc12
– | 0.03 µM | – | – | – | O=C(O)c1ccc2oc(Cn3ccnc3)c(Br)c2c1
> 0.0002 M | 0.022 µM | – | – | – | O=C(O)c1ccc2sc(Cn3ccnc3)c(Cl)c2c1
> 0.0002 M | 0.015 µM | > 100 µM | 3.9 | 6.34 | O=C(O)c1ccc2sc(Cn3ccnc3)cc2c1
– | 0.012 µM | – | – | – | O=C(O)c1ccc2oc(Cn3ccnc3)cc2c1
– | 0.027 µM | > 100 µM | – | – | O=C(O)c1ccc2sc(Cn3ccnc3)c(Br)c2c1
> 0.0002 M | 0.017 µM | > 100 µM | 3.82 | 6.58 | Cc1c(Cn2ccnc2)sc2ccc(C(=O)O)cc12
